Data: the supplement of paper PMC10307832

Columns and labels:
Experiment in all cases: relative viability (nuclei count vs DMSO), 5 days (fraction); higher = more cells survive
[1] = compound: Cc1ccc2nc(NCCN)c3ncc(C)n3c2c1 + CC1(C)CCC(c2ccc(Cl)cc2)=C(CN2CCN(c3ccc(C(=O)NS(=O)(=O)c4ccc(N[C@H](CCN5CCOCC5)CSc5ccccc5)c(S(=O)(=O)C(F)(F)F)c4)cc3)CC2)C1 [Navitoclax] (partner 0.5 µM)
How it was run: (§1)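 Lung cancer cell lines in 1536-well plates got either a single drug or a fixed anchor-drug dose together with five library-drug doses (not always all listed) in √10 steps, by pin tool, on the day after seeding. Nuclei were counted after 5 days, and relative viability is the treated-to-vehicle ratio of nuclei counts. Values are medians of duplicate plates.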

[2] = compound: Cc1ccc2nc(NCCN)c3ncc(C)n3c2c1 + CS(=O)(=O)CCNCc1ccc(-c2ccc3ncnc(Nc4ccc(OCc5cccc(F)c5)c(Cl)c4)c3c2)o1 [Lapatinib] (partner 2 µM)
How it was run: as §1

Salubrinal + Luminespib = compound: O=C(/C=C/c1ccccc1)NC(NC(=S)Nc1cccc2cccnc12)C(Cl)(Cl)Cl [Salubrinal] + CCNC(=O)c1noc(-c2cc(C(C)C)c(O)cc2O)c1-c1ccc(CN2CCOCC2)cc1 [Luminespib] (partner 0.01 µM)
How it was run: as §1

Salubrinal + Dasatinib = compound: O=C(/C=C/c1ccccc1)NC(NC(=S)Nc1cccc2cccnc12)C(Cl)(Cl)Cl [Salubrinal] + Cc1nc(Nc2ncc(C(=O)Nc3c(C)cccc3Cl)s2)cc(N2CCN(CCO)CC2)n1 [Dasatinib] (partner 0.075 µM)
How it was run: as §1

Cell Line | relative viability ([1]; first compound 0.04 µM) | relative viability ([1]; first compound 0.1265 µM) | relative viability ([1]; first compound 0.4 µM) | relative viability ([1]; first compound 1.265 µM) | relative viability ([1]; first compound 4 µM) | relative viability ([2]; first compound 0.04 µM) | relative viability ([2]; first compound 0.1265 µM) | relative viability ([2]; first compound 0.4 µM) | relative viability ([2]; first compound 1.265 µM) | relative viability ([2]; first compound 4 µM) | relative viability (Salubrinal + Luminespib; first compound 0.08 µM) | relative viability (Salubrinal + Luminespib; first compound 0.253 µM) | relative viability (Salubrinal + Luminespib; first compound 0.8 µM) | relative viability (Salubrinal + Luminespib; first compound 2.53 µM) | relative viability (Salubrinal + Luminespib; first compound 8 µM) | relative viability (Salubrinal + Dasatinib; first compound 0.08 µM) | relative viability (Salubrinal + Dasatinib; first compound 0.253 µM) | relative viability (Salubrinal + Dasatinib; first compound 0.8 µM) | relative viability (Salubrinal + Dasatinib; first compound 2.53 µM) | relative viability (Salubrinal + Dasatinib; first compound 8 µM)
NCI-H2126 | 0.881 | 0.886 | 0.815 | 0.746 | 0.792 | 0.793 | 0.783 | 0.765 | 0.791 | 0.593 | 0.958 | 0.833 | 1.03 | 0.951 | 0.877 | 0.66 | 0.554 | 0.62 | 0.592 | 0.46
EMC-BAC-2 | 1.17 | 1.18 | 1.06 | 1.15 | 1.17 | 0.915 | 0.875 | 0.847 | 0.918 | 0.851 | 1.26 | 0.835 | 1.28 | 1.16 | 1.11 | 0.305 | 0.334 | 0.359 | 0.411 | 0.335
NCI-H1993 | 0.799 | 0.782 | 0.676 | 0.752 | 0.692 | 0.844 | 0.887 | 0.695 | 0.74 | 0.629 | 0.899 | 0.681 | 0.987 | 0.896 | 0.827 | 0.602 | 0.573 | 0.525 | 0.506 | 0.503
NCI-H520 | 1.19 | 1.09 | 1.12 | 1.1 | 0.953 | 0.964 | 0.853 | 0.866 | 0.837 | 0.729 | 0.255 | 0.218 | 0.279 | 0.217 | 0.203 | 0.252 | 0.236 | 0.292 | 0.231 | 0.292
